Data as given in patent publication US11879137B2, “Treatment of type 1 diabetes and autoimmune diseases or disorders” (THE CHILDREN'S MEDICAL CENTER CORPORATION, priority 2017, dated 2024).

How the values were obtained:
[1] = test system: NEU1, MTOR, MYC, IGF1R, VEGFA, RB1 in MDA-MB-231 cells; assay: mRNA of validated miRNA target genes (transfection control) in MDA-MB-231 cells; format: cell-based, human; settings: VEGFA or RB1 as named for each agent, 48 h after transfection
Method: MDA-MB-231 breast cancer cells were cultured in DMEM high glucose medium (Gibco, Thermo Fisher Scientific; Waltham, MA USA) supplemented with 10% heat-inactivated fetal calf serum (Gibco, Thermo Fisher Scientific), 100 units/ml penicillin, 100 μg/ml streptomycin, and 2 mM L-glutamine. 2×10^5 cells were seeded in each well of a 6-well plate and transfected with 10 pmol of the miRNA mimic or miRNA mimic negative control, or 100 pmol of the anti-miR or anti-miR negative control (all from Exiqon, Qiagen) using the Lipofectamine RNAiMAX transfection reagent (Invitrogen, Thermo Fisher Scientific) in a final culture medium volume of 2 ml, following manufacturer's instructions. […] Forty-eight hours after transfection, cells were collected from each well for RNA extraction, cell lysate preparation and FACS analysis. RNA was extracted using Direct-zol RNA miniprep plus (Zymo research, Irvine, CA, USA) and RNA quality was checked and then retro-transcribed using RETROscript® Kit (Fisher Scientific) following manufacturer's instructions. Cell lysates were obtained in RIPA buffer (50 mmol/1 Tris-HCl, pH 8.0, 1% Triton-x, 0.5% sodium deoxycholate, 0.1% SDS, 150 mmol/1 sodium chloride) with protease inhibitor cocktail (Roche).
qRT-PCR for PD-L1 analysis was performed on retro-transcribed cDNA using SYBR® Green dye (Life Technologies, Thermo Fisher Scientific). Amplification was performed on a QuantStudio S6 Real Time PCR system (Thermo Fisher Scientific). To confirm a successful transfection, the mRNA level of genes known to be controlled by the targeted miRNAs were evaluated by SYBR® Green dye (Life Technologies, Thermo Fisher Scientific) according to the manufacturer's instructions. Normalized expression values were determined using the ΔΔCt method in treated as compared to negative treated samples, using GAPDH mRNA as endogenous reference. The miRNA-targeted genes tested, along with forward and reverse primer sequences used for their amplification, are listed in Table 13.
To determine if targeting the miRNA network decreases PD-L1 expression in human cancer setting, PD-L1-expressing MDA-MB-231 human breast cancer cells were transfected with a set of miRNA mimics or anti-miRs to either increase or decrease the function of a set of miRNAs not previously known to affect PD-L1 (miR-125b, miR-99a, miR-744, mir-599, miR-511, miR-206, miR-26b). The effect of treatment with miRNA mimics and anti-miRs on the percentage of PD-L1-expressing cells, as well as on PD-L1 mRNA and protein levels, was investigated. miRNA mimic/anti-miR treated-cells were compared to corresponding mimic/anti-miR negative control-treated cells by flow cytometric analysis, Real Time PCR and western blot to assess percentage of PD-L1-expressing cells, PD-L1 mRNA, and PD-L1 protein levels, respectively. A successful miRNA mimic/anti-miR transfection was confirmed by the detection of changed mRNA levels of the validated miRNA targets NEU1 (for miR-125b mimic), MTOR (for miR-99a mimic), MYC (for miR-744 mimic and miR-599 anti-miR), IGF1R (for miR-511 mimic), VEGFA (for miR-206 anti-miR) and RB1 (for miR-26b anti-miR) in treated cells (FIG. 22A). […] Lysates of miR-511 mimic and miR-206 anti-miR treated cells were not available for western blot analysis.

CD34+ cells = assay: qRT-PCR of PD-L1, CXCR4 and IDO-1 in prostaglandin-modulated CD34+ cells; format: cell-based, human; settings: CD34+ cells upon modulation
Method: qRT-PCR. RNA was extracted from CD34+ cells using Direct-Zol™ RNA Kits (Zymo, Irvine, CA, USA) and Trizol Reagent (Invitrogen Carlsbad, CA), RNA quality was assessed by Multiskan™ GO Microplate spectrophotometer and the ratios of absorbance at 260 nm and 280 nm were assessed for all the samples. Only samples with RNA ratios within 1.9 were included in the present study. cDNA synthesis was made from purified total RNA by reverse transcription using High capacity cDNA Reverse Transcription RETROscript® Kit (Thermo Fisher Scientific, Waltham, MA, USA) followed by a pre-amplification using Taqman PreAmp Kit (Applied Biosystems) according to the manufacturer's instructions. qRT-PCR analysis was performed using TaqMan assays (Life Technologies, Grand Island, NY) containing PCR primers and TaqMan probes according to the manufacturer's instructions. Normalized expression values were determined using the ΔCt method. Quantitative reverse transcriptase polymerase chain reaction (qRT-PCR) data were normalized for the expression of GAPDH. qRT-PCR reactions were performed in triplicate in a 96-well format using an Applied Biosystems 7900HT fast real-time PCR instrument. Relative expression was calculated using the comparative threshold cycle method as previously described (23, 24). For two-group comparisons, a Student's t test was employed. Reported below are the main characteristics of the primers used: […]
Prostaglandin library screening. PGE2 has been described as a small molecule known to enhance the homing and engraftment of HSPCs. It was therefore sought to screen all known types of prostaglandins using the Prostaglandin Screening Library II, which contains 64 small molecules. Each small molecule contained in the library was first screened for its capacity to upregulate PD-L1 in human CD34+ cells isolated from T1D patients (FIG. 17A-17B). CD34+ cells isolated from T1D patients were cultured in StemSpan SFEMII and pulsed with each PG (prostaglandin) small molecule contained in the aforementioned library at a concentration of 10 μM at 24 and 48h. Using FACS analysis, the MFI (mean fluorescence intensity) of PD-L1 expression was calculated following treatment with each small molecule used to modulate CD34+ cells as compared to untreated/unmodulated CD34+ cells (FIG. 17B). A heat map was generated depicting the degree to which each PG small molecule affected PD-L1 expression on CD34+ cells (FIG. 17B), thus allowing for the evaluation of PG candidates. Based on its ability to modulate PD-L1 expression, PGE2 was selected as a candidate for further study; in addition, PGE2 has been described in the literature and has been tested in clinical trials as a potential therapy for enhancing HSPC engraftment following cord blood transplantation (21). Isolated CD34+ cells from healthy control patients (CTRL) and from T1D patients were cultured in StemSpan SFEMII and pulsed with 10 μM of PGE2 at 24 hours and 48 hours. […] It was therefore sought to perform a migration assay in order to assess the homing properties of PGE2-treated CD34+ cells (FIG. 17F).

PD-L1 on CD34+ cells = assay: Prostaglandin library screening and FACS of PD-L1 on human CD34+ cells; format: cell-based; settings: for capacity to upregulate PD-L1 (MFI) in library screening: 10 μM, CD34+ cells from T1D patients; for PD-L1 expression by FACS analysis: CD34+ cells, 10 μM pulsed at 24 and 48 hours
Source text: FIGS. 17A-17J show prostaglandins enhance PD-L1 expression on human CD34^+ cells. (FIG. 17A-17B) Results of screening of a prostaglandin small molecule library tested for the ability to upregulate PD-L1 (MFI) on CD34^+ cells obtained from T1D patients. The schematic of the experimental design is shown in (A). The 3-color coding shown in (FIG. 17B) represents lowest PD-L1 MFI values (blue), median PD-L1 MFI values (pink) and highest PD-L1 MFI values (red). (FIG. 17C-17D) Representative flow cytometric analysis and quantitative bar graph of PD-L1 expression on CD34^+ cells from T1D patients pre- and post-pharmacologic modulation with PGE2 as compared to CD34^+ cells obtained from healthy controls. (FIG. 17E) PD-L1 and CXCR4 expression (mRNA) fold change was quantified for CD34^+ cells pre- and post-modulation with PGE2. (FIG. 17F) Migration assay using CD34^+ cells pre- and post-modulation with PGE2. (FIG. 17G) Confocal imaging of CD34^+ cells pre- and post-modulation with PGE2, showing DAPI (in blue) and PD-L1 (in green) staining. 63× magnification. Scale bar, 50 (FIG. 17H) IDO-1 expression (mRNA) fold change was quantified for CD34^+ cells pre- and post-modulation with PGE2. (FIG. 17I-17J) Representative flow cytometric analysis (FIG. 17I) and quantitative bar graph (FIG. 17J) of PD-L1 expression on CD34^+ cells from T1D patients pre- and post-pharmacologic modulation with 4 small molecule PGE2 agonists. All data are expressed as mean±SEM. *P<0.05, **P<0.001. Abbreviations: MFI, mean fluorescence intensity.
Pharmacological modulation of human CD34+ cells. 1×105 of isolated human CD34+ HSPCs (purity 99%) were cultured in 200 μl of StemSpan SFEM II media (SEMCELL Technologies Inc., Cambridge, MA, USA), and each compound in the Prostaglandin Screening Library II (Cayman Chemicals, Ann Arbor, MI), was added individually at day 0 and at day 1 at a concentration of 10 μM as previously reported by the inventors and others (9, 21). In another assay, isolated CD34+ cells from freshly isolated human PBMCs or from cryopreserved PBMCs, and processed as described earlier, were cultured in the presence of a cocktail of cytokines containing: 10 μg/ml heparin (SEMCELL Technologies Inc., Cambridge, MA, USA), 10 ng/ml human SCF (Miltenyi Biotec, San Diego, CA), 20 ng/ml human TPO (Miltenyi Biotec, San Diego, CA), 10 ng/ml human FGF-1 (Miltenyi Biotec, San Diego, CA), 100 ng/ml IGFBP2 (R&D Systems, Inc., Minneapolis, MN), and 500 ng/ml Angptl3 (R&D Systems, Inc., Minneapolis, MN). PGE2 (PromoKine, PromoCell Gmbh, Germany) was added by pulsing the culture at 0, 24h, 72h and 6 days with 2 μl of diluted PGE2 (10 μM). Cells were cultured for 7 days at 37° C. in 5% CO2, and CD34+ cells were then subjected to FACS analysis and were run on a FACSCelesta™ (Becton Dickinson, Franklin Lakes, NJ). Data were analyzed using FlowJo software version 8.7.3 (Treestar, Ashland, OR). The different cytokines used here and their related concentration as well as the choice of the incubation timing was used as previously reported in the literature (22).
Prostaglandin library screening. PGE2 has been described as a small molecule known to enhance the homing and engraftment of HSPCs. It was therefore sought to screen all known types of prostaglandins using the Prostaglandin Screening Library II, which contains 64 small molecules. Each small molecule contained in the library was first screened for its capacity to upregulate PD-L1 in human CD34+ cells isolated from T1D patients (FIG. 17A-17B). CD34+ cells isolated from T1D patients were cultured in StemSpan SFEMII and pulsed with each PG (prostaglandin) small molecule contained in the aforementioned library at a concentration of 10 μM at 24 and 48h. Using FACS analysis, the MFI (mean fluorescence intensity) of PD-L1 expression was calculated following treatment with each small molecule used to modulate CD34+ cells as compared to untreated/unmodulated CD34+ cells (FIG. 17B). […]

Molecule | mRNA levels of the validated miRNA target [1] | PD-L1 mRNA expression by RT-PCR (CD34+ cells) | capacity to upregulate PD-L1 (MFI) in library screening (PD-L1 on CD34+ cells) | PD-L1 expression by FACS analysis (PD-L1 on CD34+ cells)
miR-99a mimic: miRNA mimic, AACCCGUAGAUCCGAUCUUGUG, SEQ ID NO: 3 (listed as RNA, chemistry not given here) | changed | – | – | –
miR-511 mimic: miRNA mimic, AAUGUGUAGCAAAAGACAGA, SEQ ID NO: 2 (listed as RNA, chemistry not given here) | changed | – | – | –
miR-26b anti-miR: Anti-miR, CUAUCCUGAAUUACUUGA, SEQ ID NO: 8 (listed as RNA, chemistry not given here) | changed | – | – | –
miR-744 mimic: miRNA mimic, CUGUUGCCACUAACCUCAACCU, SEQ ID NO: 4 (listed as RNA, chemistry not given here) | changed | – | – | –
CCCCC(C)(C)[C@H](O)/C=C/[C@H]1[C@H](O)CC(=O)[C@@H]1C/C=C\CCCC(=O)Oc1ccc(NC(=O)c2ccc(NC(C)=O)cc2)cc1 [16,16-dimethyl PGE2 4-(4-acetamidobenzamido) phenyl ester] | – | marked upregulation | strongest capacity | robust upregulation
miR-206 anti-miR: Anti-miR, CACACACUUCCUUACAUUCC, SEQ ID NO: 7 (listed as RNA, chemistry not given here) | changed | – | – | –
CCCCCCC[C@H](O)/C=C/[C@H]1[C@H](O)CC(=O)[C@@H]1C/C=C\CCCC(=O)O [20-ethyl PGE2] | – | marked upregulation | strongest capacity | robust upregulation
CCCCC[C@H](O)/C=C/[C@H]1[C@H](O)CC(=O)[C@@H]1CC(=O)CCCCC(=O)O [6-keto PGE1] | – | – | strongest capacity | robust upregulation
